# Results published in US20150018305A1, “SIRTUIN INDUCER, TISSUE REPAIRING AGENT, HEPATOCYTE GROWTH FACTOR INDUCER, TISSUE HOMEOSTASIS MAINTENANCE AGENT, AND TLR4 AGONIST, HAVING HYALURONIC ACID FRAGMENT AS ACTIVE INGREDIENT” (HYALURONAN RESEARCH INSTITUTE, INC., priority 2012, published 2015).
# Assays:
# [1] = system: human large intestine epithelial cells (HT29 cells); test: Hydrogen peroxide induced aging of human large intestine epithelial cells, MTS assay (Test Examples 16-18); assay type: cell-based; settings: for suppression of cellular aging (MTS value, OD 490 nm): hydrogen peroxide 10 μM 15 min
# Experimental: Human large intestine epithelial cells (HT29 cells) were experienced cellular aging (decline in mitochondrial activity due to injury, or a drop in the MTS value once cell death occurs) due to stimulation by the hydrogen peroxide when treated with hydrogen peroxide, and it was investigated whether this process is affected by treatment with the hyaluronic acid fragment. Specifically, the following test was performed.
# Using a DMEM culture medium (made by Wako Pure Chemical Industries, Ltd.), human large intestine epithelial cells (HT29 cells) were cultured by usual methods at 37° C. under 5% CO2. Hydrogen peroxide was added to the culture medium to a final concentration of 10 μM to bring about stimulation for a 15-minute period, and the culture broth was then transferred to DMEM culture medium containing no hyaluronic acid fragments; to DMEM culture medium containing hyaluronic acid fragment (4mer) in a final concentration of 100 ng/ml; or to DMEM culture medium containing the hyaluronic acid fragment (4mer) plus TLR4/MD2 in a final concentration of 10 μg/ml, and cultured for 3 hours.
# After 3 hours had passed, an MTS assay was performed. On the basis of the action, in which MTS is converted to formazan by dehydrogenation in the mitochondria of the cell, OD 490 nm was measured to measure mitochondrial function.
# Using hyaluronic acid fragment (4mer), hyaluronic acid fragment (L4mer) and hyaluronic acid fragment (L3mer) as test substances, tests similar to those of Test Example 16 were performed, except that the culture time following transfer to the culture medium containing the test substance was one hour.
# Tests similar to those of Test Example 16 were performed, except for using hyaluronic acid fragment (L4mer), and hyaluronic acid fragment (L3mer) as test substances.
# [2] = system: sirtuin enzymatic activity (sirt1 enzymatic activity); test: Sirtuin enzymatic activity in cell solution of human epidermal keratinocytes, CycLex SIRT1/Sir2 Deacetylase Fluorometric Assay Kit (Test Example 2); assay type: cell-based; settings: 10 ng/ml final concentration; cell crude extract
# Experimental: Human epidermal keratinocytes were treated in the same manner as in Test Example 1, except that the final concentration of the hyaluronic acid fragment was 10 ng/ml, the size thereof being four sugar units (4mer), six sugar units (6mer), or 10 sugar units (10mer), while measuring the sirtuin enzymatic activity (sirt1 enzymatic activity) in the cell solution thereof. For purposes of comparison, 10 kDa or 900 kDa hyaluronic acid, and resveratrol, a known sirtuin activator, were likewise tested at 10 ng/ml final concentration. A human sirtuin recombinant protein (recombinant human sirt1) produced through genetic recombination techniques was used as a substance for verification of the measurement system. Sirtuin enzymatic activity in the cell crude extract was measured with the CycLex SIRT1/Sir2 Deacetylase Fluorometric Assay Kit (trade name of CycLex), following the protocol of the kit.
Compound,"suppression of cellular aging (MTS value, OD 490 nm) ([1]; then 100 ng/ml for 3 hours)","suppression of cellular aging (MTS value, OD 490 nm) ([1]; then test substance for one hour)","suppression of cellular aging with TLR4/MD2 added (MTS) ([1]; hydrogen peroxide 10 μM, 100 ng/ml plus TLR4/MD2 10 μg/ml, 3 hours)",sirtuin enzymatic activity (sirt1 enzymatic activity) compared with negative control [2]
CC(=O)NC1C(O[C@@H]2OC(C(=O)O)[C@@H](O[C@@H]3OC(CO)[C@@H](O)C(O[C@@H]4OC(C(=O)O)[C@@H](O)C(O)C4O)C3NC(C)=O)C(O)C2O)[C@H](O)C(CO)O[C@H]1OCCCN=[N+]=[N-] (stereo partly shown) [L4mer],showed effect in suppressing cellular aging,showed effect in suppressing cellular aging,inhibited by the addition of TLR4/MD2,
"Oc1ccc(C=Cc2cc(O)cc(O)c2)cc1 [resveratrol, reference compound]",,,,No change was observed
